“Also recorded” adds a separate entry of the source.
Assays:
[1] = weight loss product rating; cited from earlier work
HFD-fed obese mice [2] = test: Insulin Tolerance Test (ITT); assay type: in vivo, mouse; conditions: 2 mg/kg i.p., day 16, insulin 1 IU/kg i.p.
Method: (§1) In order to analyze the effect of Withaferin A on glucose homeostasis, we performed Glucose Tolerance Test (GTT) and Insulin Tolerance Test (ITT) after chronic i.p. Withaferin A treatment (2 mg/kg). For GTT, mice were fasted overnight following one week of Withaferin A treatment and received an i.p. injection of D-glucose (1 g/kg) in the morning. For ITT, after 16 days of Withaferin A treatment, mice were fasted for 6 hours (from 8 a.m. to 2 p.m.) and recombinant human insulin (1 IU/kg from Eli Lilly) was injected intraperitoneally. In both procedures, blood glucose was measured from tail vein blood at 0, 15, 30, 60, 90 and 120 minutes after injection.

[3] = tested on: 10-week old lean mice on chow diet; test: Withaferin A i.p. to lean mice on chow diet for three weeks; assay type: in vivo, mouse; conditions: 2 mg/kg i.p.
Method: Withaferin A was administered to 10-week old lean mice on chow diet at 2 mg/kg for three weeks by i.p. injections.

[4] = tested on: HFD-fed obese C57Bl/6J mice; test: Withaferin A daily i.p. to HFD-fed obese mice for three weeks: body weight, food intake, fasting blood glucose; assay type: in vivo, mouse
Method: To investigate whether Withaferin A can act as an anti-obesity drug by increasing leptin sensitivity and reducing appetite, C57Bl/6J mice were placed on a high fat diet (HFD; Research Diets, D12451, 45 kcal % fat) feeding for 16 weeks. After establishment of obesity and leptin resistance, mice were administered Withaferin A (at 2 mg/kg, in 25 μl DMSO, once per day) and vehicle (DMSO, 25 n1) with intraperitoneal (i.p.) injection. The animals had free access to food and water unless otherwise stated. In all experiments, three days prior to drug administration, the animals went through an acclimation period where they were given DMSO (25 n1) to reduce the effect of stress created by i.p. injection.
Following three days acclimation, mice were administered Withaferin A daily i.p. injections at 2 mg/kg for three weeks in 25 μl of DMSO as vehicle, whereas the control group received the same volume of DMSO. […] At day 21 of the experiment, the 6-hour fasting blood glucose of mice was measured.

[5] = tested on: leptin receptor deficient (db/db) mice; test: Withaferin A to leptin receptor deficient (db/db) mouse model of obesity; assay type: in vivo; conditions: 2 mg/kg once a day
Method: To explore whether Withaferin A's effect is leptin dependent, Withaferin A (2 mg/kg, once a day, in 2Sμ1 DMSO) was administered to leptin receptor deficient (db/db) mouse model of obesity.

HFD-fed obese mice [6] = test: Leptin sensitivity: overnight food intake after acute Withaferin A and leptin injection, HFD-fed obese mice; assay type: in vivo, mouse
Method: (§2) Therefore is it possible that Withaferin A exerts the anti-obesity effects through increasing the leptin sensitivity in the brains of the HFD-fed obese mice. To test this hypothesis, leptin was administered to Withaferin A or vehicle treated HFD-fed obese animals. To avoid any possible leptin sensitizing effect of weight loss or decreased food intake created by Withaferin A administration, leptin injections were carried out upon acute Withaferin A treatment. Lean and HFD-fed obese mice were divided into four groups: 1) DMSO+saline, 2) DMSO+leptin, 3) Withaferin A+saline, and 4) Withaferin A+leptin (n=6 per group). The mice were injected (i.p.) with 1.5 mg/kg Withaferin A or vehicle (DMSO) one hour before dark cycle (day zero). 24 hours later, the second and final injection of DMSO or Withaferin A was administered. 30 minutes prior to dark cycle, mice received a single i.p. injection of leptin (1 mg/kg for HFD mice, dissolved in saline; 5 mg/kg for lean mice), or saline. Over night food intakes were recorded (HFD, FIG. 4A; Chow FIG. 4B). […] In addition, HFD-fed obese mice were resistant to the food intake reducing effect of leptin unless they received Withaferin A (FIG. 4A).

HFD-fed mice = test: Body composition by Dual-Emission X-ray Absorptiometry (DEXA); assay type: in vivo, mouse; conditions: i.p. 2 mg/kg, two weeks
Method: To analyze the change in body composition during Withaferin A treatment (i.p. 2 mg/kg), lean mass and fat mass of mice with Dual-Emission X-ray Absorptiometry (DEXA) were measured.

lean mice = test: Leptin sensitivity: overnight food intake after acute Withaferin A and leptin injection, lean mice; assay type: in vivo, mouse
Method: as §2

HFD-fed obese mice [7] = test: Glucose Tolerance Test (GTT); assay type: in vivo, mouse; conditions: 2 mg/kg i.p., one week, D-glucose 1 g/kg i.p., vs vehicle
Method: as §1

Compound: [Cr] [Chromium]
- Safety [1]: Likely safe

Compound: CC1=C(CO)C(=O)O[C@@H]([C@@H](C)[C@H]2CC[C@H]3[C@@H]4C[C@H]5O[C@]56[C@@H](O)C=CC(=O)[C@]6(C)[C@H]4CC[C@]23C)C1 [Withaferin A]
- insulin sensitivity (ITT) (HFD-fed obese mice [2]): improved insulin sensitivity
- blood glucose levels ([3]; after 3 weeks of treatment): not altered
- body weight ([3]; three weeks): failed to induce bodyweight loss
- food intake ([3]; three weeks): failed to induce bodyweight loss or suppress food intake
- 6-hour fasting blood glucose ([4]; 2 mg/kg i.p. daily, day 21, 2 mg/kg): decreases blood glucose; also recorded: robust decrease
- food intake ([4]; 2 mg/kg i.p. daily, three days average within first week): significantly decreased
- body weight ([4]; 2 mg/kg i.p. once per day, three weeks, vs DMSO vehicle): significantly decreased
- body weight [5]: continued to increase similar to the vehicle treated group
- food intake [5]: did not show a decrease
- blood glucose levels ([5]; end of 3-week treatment): tendency to decrease but did not reach statistically significant levels
- anorectic action of leptin (HFD-fed obese mice [6]; HFD mice, Withaferin A 1.5 mg/kg i.p. before leptin 1 mg/kg): significantly potentiated
- decrease in food intake upon leptin injection (HFD-fed obese mice [6]; HFD-fed obese mice, Withaferin A 1.5 mg/kg i.p. + leptin 1 mg/kg i.p., compared to vehicle treated non-leptin group): 75%
- overnight food intake (HFD-fed obese mice [6]; HFD-fed obese mice, Withaferin A 1.5 mg/kg i.p. alone, no exogenous leptin): decreased the food intake
- fat percentage (HFD-fed mice): decreased significantly
- lean mass (HFD-fed mice): did not change
- decrease in food intake upon leptin injection (lean mice; lean mice, Withaferin A 1.5 mg/kg i.p. + leptin 5 mg/kg i.p., compared to vehicle treated non-leptin group): approximately 50%
- anorectic action of leptin (lean mice; lean mice, Withaferin A 1.5 mg/kg i.p. before leptin 5 mg/kg): significantly potentiated
- overnight food intake (lean mice; lean mice, Withaferin A 1.5 mg/kg i.p. two injections, without leptin): did not change
- glucose homeostasis (AUC of GTT) (HFD-fed obese mice [7]): significantly improved

Compound: Conjugated linoleic acid
- Effectiveness [1]: Possibly
- Safety [1]: Possibly safe

Compound: leptin: peptide hormone, afferent signal in a negative feedback loop regulating food intake and body weight
- food intake reducing effect of leptin (HFD-fed obese mice [6]; HFD-fed obese mice without Withaferin A, leptin 1 mg/kg single i.p. injection): resistant
- overnight food intake (lean mice; vehicle treated lean mice, leptin 5 mg/kg single i.p. injection): suppressed food intake
